Our source for the IC50, minimal effective dose and ED50 values is US5922731A, “5-[(heteroaryl)alkyl]-3-oxo-pyrido[1,2-a]benzimidazole-4-carboxamide derivatives useful in treating central nervous system disorders” (Ortho Pharmaceutical Corporation, priority 1997, dated 1999).

The structures appear in SMILES notation.

As a reminder, the IC50 is the concentration needed to halve the response being measured. In general, ED50 refers to the dose that gives a 50% effect, or the effect in half of the subjects. Read a low ED50 as greater potency.

Assay [1] concerns the target benzodiazepine site of the GABA-A receptor. Put plainly: Benzodiazepine Receptor Binding Assay (inhibition of 3H-flunitrazepam binding). The conditions noted are these: 3H-flunitrazepam ca. 3 nM; 10-20 min at 25° C. The protocol: Selected compounds, which were prepared according to the experimental details given in the following examples, were tested for binding to the benzodiazepine site of the GABA-A receptor (Williams, M. et al., J. Pharm. Exper. Therap. 1988, 248, 89). The ability of the compounds of the invention to inhibit the binding of flunitrazepam to prepared receptors was assessed. For each sample, membranes from ca. 10 mg of tissue were incubated in a K2 HPO4 -buffered incubation medium (final concentration=2.0 mL). The concentration of ligand (^3 H-flunitrazepam) was ca. 3 nM. Samples were incubated 10-20 min at 25° C., after which the membrane material and bound ligand was collected on glass fiber filter sheets using vacuum filtration. The collected material was washed with 10 mM HEPES buffered solution, and the radioactivity associated with each sample was measured by liquid scintillation spectrometry. The binding of the test drug to the receptor was determined by comparing the amount of radiolabeled ligand bound in control samples to the amount of ligand bound in the presence of the drug. Concentration-response data were analyzed in a variety of ways. The IC50 was usually calculated by transforming the data to a log-logit format, then performing a linear regression analysis. This procedure provides a Hill coefficient as well as the IC50 value. An IC50 value of over 10,000 for a particular compound would indicate that the compound was not active in this screen. This is a general screen and compounds active here are have potential utility for the treatment of one or more disorders of the central nervous system.

Assay [2] deals with behavior suppressed by punishment (Rat Conflict). Put plainly: Suppression of Anxiety in the Adult Male Rat (conflict test). Type of assay: in vivo. The conditions noted are these: ip, minimum effective dose, p<0.05 1-tailed vs vehicle, 3-min test session, read-out: Rat Conflict MED. The method, then:
The anxiolytic activity of selected compounds of the invention was assessed by determining their ability to release (disinhibit) behavior that had been suppressed by punishment (Vogel, J. R. et al. Psychopharmacology 1971, 21, 1). Male rats were deprived of water for 48 hrs and were deprived of food for 24 hrs prior to testing. After the first 24 hours of water deprivation, they were placed in the conflict chamber for a training period; wherein, they were allowed 200 unpunished licks from a bottle containing tap water. The experiment was run the next day. At the expected time of peak activity, the animals were placed in the chamber and allowed access to tap water. […] Their first lick initiates a 3-min test session. Subsequently,every 20th lick was punished by a 0.2-s shock delivered via the stainless-steel drinking-tube. Vehicle-treated control animals generally were willing to accept a median number of 3 to 8 shocks per test session. […] The Wilcoxon rank-sum test (Mann-WhitneyU-test) was used to test for an increase (p<0.05, 1-tailed) in the median number of shocks in drug-treated groups, compared to a concurrently run vehicle-treated group. The biological assay is considered to be valid if the effects of a known anxiolytic (positive control) are detected, within the same experiment. A compound was considered active if there is a significant difference in the median number of shocks tolerated between the drug-treated group and the control group. The MED was defined as the minimum dose of the drug-treatment as analyzed using the Wilcoxon rank-sum test (SAS; Statistical Analysis System, version 5.16). If the MED value is greater than 10, an active dose of the compound being tested had not been determined.

Assay [3] has as its system metrazol-induced convulsions. Put plainly: Suppression of Metrazol-Induced Convulsions in Adult Male Mice. Type of assay: in vivo, mouse (male CD1). Conditions: 0.5 h; mouse, ip; block of clonic convulsions, CD90 dose of metrazol sc, 30 min observation. The method, then:
Compounds of the invention were tested for their ability to reduce metrazol-induced convulsions in mice (Swinyard, E. A. J. Am. Pharm Assoc. 1949, 38, 201). Male CD1 mice, were fasted at least 16 hours, were divided into equal groups and test compounds or vehicle were administered parenterally. Water was not withheld except during the period of observations. At the time of suspected peak activity, anti-pentylenetetrazol (anti-metrazol) activity was evaluated by the subcutaneous administration of the CD90 dose of metrazol (the dose of metrazol was determined from the dose-response curve producing clonic convulsions in 90% of animals that received the corresponding vehicle for this experiment). Metrazol was dissolved in 0.9% sodium chloride solution, and its dose volume was 10 mL/kg. Animals were housed individually for observation of clonic convulsions, tonic convulsions and death for a period of 30 min. Test compounds that blocked the clonic seizure component of the convulsion in at least 50% of the animals were considered active. The biological assay was considered to be valid if the effects of a known anticonvulsant (positive control) were detected, within the same experiment. Activity was reported as percent reduction of clonic convulsions from the vehicle group. The ED50 values of active compounds were calculated by the method of probits (Finney, D. J. 1971. Probit Analysis. London: Cambridge University Press) and are listed in Table 1. […] Compounds active in this screen are considered active anticonvulsion/antiepileptic agents.

The compound `O=C1CCN2C(=C1C(=O)Nc1c(F)cccc1F)N(Cc1ccccn1)c1cc(F)ccc12` [CP# 24] came in with an IC50 in assay [1] of 24.4 nM. In assay [2], the minimal effective dose is 10 mg/kg. Moreover, the 50% effect level in assay [3] (ED50) was put at a dose of 3 mg/kg.
In the same order, the values of `O=C1CCN2C(=C1C(=O)Nc1ccccc1F)N(Cc1ccncc1)c1cc(F)ccc12` [CP# 16] are 3.01 nM, more than 10 mg/kg and 3 mg/kg.
For the compound `O=C1CCN2C(=C1C(=O)Nc1ccccc1F)N(Cc1ccco1)c1cc(F)ccc12` [CP# 11], the half-inhibitory concentration (IC50) in assay [1] came to 0.59 nM. Also, the minimal effective dose in assay [2] is more than 10 mg/kg. The compound further displayed a median effective dose (ED50) in assay [3] of less than 10 mg/kg.
Taken in the same sequence, the figures for `O=C1CCN2C(=C1C(=O)Nc1ccccc1F)N(Cc1ccsc1)c1cc(F)ccc12` [CP# 19, 7-Fluoro-1,2-dihydro-5-[(3-thienyl)methyl]-3-oxo-N-(2-fluorophenyl)pyrido-[1,2-a]benzimidazole-4-carboxamide] were 0.71 nM, less than 10 mg/kg and 0.7 mg/kg.
In the same order, the values of `O=C1CCN2C(=C1C(=O)Nc1c(F)cccc1F)N(Cc1cccs1)c1cc(F)ccc12` [CP# 26] are 2.98 nM, more than 10 mg/kg and less than 10 mg/kg.
Take `O=C1CCN2C(=C1C(=O)Nc1ccccc1F)N(Cc1ccc[n+]([O-])c1)c1cc(F)ccc12` [CP# 13]: in assay [1], the half-maximal inhibitory concentration (IC50) stood at 5.19 nM. Further, the minimal effective dose in assay [2] is more than 10 mg/kg. For the same compound, in assay [3], the ED50 was 3 mg/kg.
Taken in the same sequence, the figures for `O=C1CCN2C(=C1C(=O)Nc1ccccc1F)N(Cc1ccccn1)c1ccccc12` [CP# 28, 1,2-Dihydro-5-(2-pyridylmethyl)-3-oxo-N-(2-fluorophenyl)pyrido[1,2-a]-benzimidazole-4-carboxamide] were 3.77 nM, less than 10 mg/kg and 0.5 mg/kg.
Take `O=C1CCN2C(=C1C(=O)Nc1ccccc1F)N(Cc1ccccn1)c1cc(F)ccc12` [CP# 22]: the concentration for half-maximal inhibition (IC50) in assay [1] is 2.79 nM. Further, the minimal effective dose in assay [2] was less than 10 mg/kg. In assay [3], this compound gave an ED50 of less than 1 mg/kg.
In the same order, the values of `O=C1CCN2C(=C1C(=O)Nc1ccccc1F)N(Cc1cccnc1)c1ccccc12` [CP# 30] are 4.54 nM, 10 mg/kg and 10 mg/kg.
Taken in the same sequence, the figures for `O=C1CCN2C(=C1C(=O)Nc1ccccc1F)N(Cc1cc[n+]([O-])cc1)c1cc(F)ccc12` [CP# 14] were 13.4 nM, more than 10 mg/kg and 10 mg/kg.
Taken in the same sequence, the figures for `O=C1CCN2C(=C1C(=O)Nc1ccccc1F)N(Cc1cccnc1)c1cc(F)ccc12` [CP# 17, 7-Fluoro-1,2-dihydro-5-(3-pyridylmethyl)-3-oxo-N-(2-fluorophenyl)pyrido[1,2-a]benzimidazole-4-carboxamide] were 1.27 nM, more than 10 mg/kg and 1 mg/kg.
Regarding `O=C1CCN2C(=C1C(=O)Nc1c(F)cccc1F)N(CCc1cccs1)c1cc(F)ccc12` [CP# 18], the IC50 in assay [1] was found to be 0.61 nM. Besides, in assay [2], the minimal effective dose was more than 10 mg/kg. In assay [3], this compound yielded a 50% effective dose (ED50) of 10 mg/kg.
Taken in the same sequence, the figures for `O=C1CCN2C(=C1C(=O)Nc1ccccc1F)N(Cc1cccs1)c1cc(F)ccc12` [CP# 21, 7-Fluoro-1,2-dihydro-5-[(2-thienyl)methyl]-3-oxo-N-(2-fluorophenyl)pyrido-[1,2-a]benzimidazole-4-carboxamide] were 0.3 nM, less than 10 mg/kg and less than 1 mg/kg.
In assay [1], `O=C1CCN2C(=C1C(=O)Nc1c(F)cccc1F)N(Cc1ccco1)c1cc(F)ccc12` [CP# 27] showed an IC50 of 1.26 nM. The minimal effective dose in assay [2] is more than 10 mg/kg. The same compound came in with a 50% effective dose (ED50) in assay [3] of 1 mg/kg.
In turn, `O=C1CCN2C(=C1C(=O)Nc1ccccc1F)N(CCc1ccsc1)c1cc(F)ccc12` [CP# 20, 7-Fluoro-1,2-dihydro-5-[2-(3-thienyl)ethyl]3-oxo-N-(2-fluorophenyl)pyrido[1,2-a]benzimidazole-4-carboxamide] yielded an IC50 in assay [1] of 0.096 nM. In assay [2], the minimal effective dose is less than 10 mg/kg. This compound came in with an ED50 in assay [3] of 0.1 mg/kg.
Regarding `O=C1CCN2C(=C1C(=O)Nc1c(F)cccc1F)N(Cc1ccsc1)c1cc(F)ccc12` [CP# 23], in assay [1], the IC50 was found to be 4.24 nM. Further, the minimal effective dose in assay [2] is more than 10 mg/kg. For the same compound, the median effective dose (ED50) in assay [3] is more than 10 mg/kg.
As for `O=C1CCN2C(=C1C(=O)Nc1c(F)cccc1F)N(Cc1ccccn1)c1ccccc12` [CP# 29], the IC50 in assay [1] stood at 23.9 nM. Also, in assay [2], the minimal effective dose is more than 10 mg/kg. In assay [3], this compound came in with an ED50 of 3 mg/kg.
In the same order, the values of `O=C1CCN2C(=C1C(=O)Nc1ccccc1F)N(Cc1c[nH]cn1)c1cc(F)ccc12` [CP# 12, 7-Fluoro-1,2-dihydro-5-[(4-imidazo)methyl]-3-oxo-N-(2-fluorophenyl)pyrido-[1,2-a]benzimidazole-4-carboxamide] are 0.29 nM, more than 10 mg/kg and 30 mg/kg.
In the same order, the values of `O=C1CCN2C(=C1C(=O)Nc1ccccc1F)N(CCc1ccccn1)c1cc(F)ccc12` [CP# 15] are 0.89 nM, 10 mg/kg and 0.3 mg/kg.
Taken in the same sequence, the figures for `O=C1CCN2C(=C1C(=O)Nc1c(F)cccc1F)N(CCc1ccsc1)c1cc(F)ccc12` [CP# 25] were 0.22 nM, less than 10 mg/kg and 3 mg/kg.
